Data published in patent publication US11149054B2, “Oxysterols and methods of use thereof” (Sage Therapeutics, Inc., priority 2016, dated 2021).
Where two headings read alike, the source gives them in different places.

Assays:
[1] = molecular target: GlunN1/GluN2A glutamate receptors (Homo sapiens (Human), UniProt Q05586+Q12879); test: Whole-cell patch clamp of mammalian cells (Ionworks Barracuda), positive allosteric modulation, GluN1/GluN2A; assay type: cell-based
Description: (§1) The measurements were performed using Ion Works Barracuda platform following this procedure:
(§2) Electrophysiological Procedures:
(§3) • a) Intracellular solution (mM): 50 mM CsCl, 90 mM CsF, 2 mM MgCl2, 5 mM EGTA, 10 mM HEPES. Adjust to pH 7.2 with CsOH. • b) Extracellular solution, HB-PS (composition in mM): NaCl, 137; KCl, 1.0; CaCl2), 5; HEPES, 10; Glucose, 10; pH adjusted to 7.4 with NaOH (refrigerated until use). • c) Holding potential: −70 mV, potential during agonist/PAM application: −40 mV. Recording Procedure: • a) Extracellular buffer will be loaded into the PPC plate wells (11 μL per well). Cell suspension will be pipetted into the wells (9 μL per well) of the PPC planar electrode. • b) Whole-cell recording configuration will be established via patch perforation with membrane currents recorded by on-board patch clamp amplifiers. • c) Two recordings (scans) will be performed. First, during pre-application of test article alone (duration of pre-application—[…]) and second, during test articles and agonist (EC20 L-glutamate and 30 μM glycine) co-application to detect positive modulatory effects of the test article. […] Potentiating Effect of Positive Allosteric Modulators (PAM) on the Channel
(§4) PAM concentration-response data will be fitted to an equation of the form: % Activation=% L-glutamate EC20+{(% MAX−% L-glutamate EC20)/[1+([Test]/EC50)^N]}, where [Test] will be the concentration of PAM (test article), EC50 will be the concentration of PAM producing half-maximal activation, N will be the Hill coefficient, % L-glutamate EC20 will be the percentage of the current Elicited with L-glutamate EC20, % MAX is the percentage of the current activated with the highest dose of PAM co-admitted with L-glutamate EC20 and % Activation will be the percentage of the current elicited with L-glutamate EC10-30 at each PAM concentration. The maximal amplitude of the evoked currents are measured and defined as Peak Current Amplitude (PCA).

[2] = molecular target: GluN2B glutamate receptors (Homo sapiens (Human), UniProt Q05586+Q13224); test: Whole-cell patch clamp of mammalian cells (Ionworks Barracuda), positive allosteric modulation, GluN2B; assay type: cell-based; details: for Emax: read-out: Avg Emax 2B (%)
Chain of GluN2B glutamate receptors (Q13224 27-1484, other chains not shown): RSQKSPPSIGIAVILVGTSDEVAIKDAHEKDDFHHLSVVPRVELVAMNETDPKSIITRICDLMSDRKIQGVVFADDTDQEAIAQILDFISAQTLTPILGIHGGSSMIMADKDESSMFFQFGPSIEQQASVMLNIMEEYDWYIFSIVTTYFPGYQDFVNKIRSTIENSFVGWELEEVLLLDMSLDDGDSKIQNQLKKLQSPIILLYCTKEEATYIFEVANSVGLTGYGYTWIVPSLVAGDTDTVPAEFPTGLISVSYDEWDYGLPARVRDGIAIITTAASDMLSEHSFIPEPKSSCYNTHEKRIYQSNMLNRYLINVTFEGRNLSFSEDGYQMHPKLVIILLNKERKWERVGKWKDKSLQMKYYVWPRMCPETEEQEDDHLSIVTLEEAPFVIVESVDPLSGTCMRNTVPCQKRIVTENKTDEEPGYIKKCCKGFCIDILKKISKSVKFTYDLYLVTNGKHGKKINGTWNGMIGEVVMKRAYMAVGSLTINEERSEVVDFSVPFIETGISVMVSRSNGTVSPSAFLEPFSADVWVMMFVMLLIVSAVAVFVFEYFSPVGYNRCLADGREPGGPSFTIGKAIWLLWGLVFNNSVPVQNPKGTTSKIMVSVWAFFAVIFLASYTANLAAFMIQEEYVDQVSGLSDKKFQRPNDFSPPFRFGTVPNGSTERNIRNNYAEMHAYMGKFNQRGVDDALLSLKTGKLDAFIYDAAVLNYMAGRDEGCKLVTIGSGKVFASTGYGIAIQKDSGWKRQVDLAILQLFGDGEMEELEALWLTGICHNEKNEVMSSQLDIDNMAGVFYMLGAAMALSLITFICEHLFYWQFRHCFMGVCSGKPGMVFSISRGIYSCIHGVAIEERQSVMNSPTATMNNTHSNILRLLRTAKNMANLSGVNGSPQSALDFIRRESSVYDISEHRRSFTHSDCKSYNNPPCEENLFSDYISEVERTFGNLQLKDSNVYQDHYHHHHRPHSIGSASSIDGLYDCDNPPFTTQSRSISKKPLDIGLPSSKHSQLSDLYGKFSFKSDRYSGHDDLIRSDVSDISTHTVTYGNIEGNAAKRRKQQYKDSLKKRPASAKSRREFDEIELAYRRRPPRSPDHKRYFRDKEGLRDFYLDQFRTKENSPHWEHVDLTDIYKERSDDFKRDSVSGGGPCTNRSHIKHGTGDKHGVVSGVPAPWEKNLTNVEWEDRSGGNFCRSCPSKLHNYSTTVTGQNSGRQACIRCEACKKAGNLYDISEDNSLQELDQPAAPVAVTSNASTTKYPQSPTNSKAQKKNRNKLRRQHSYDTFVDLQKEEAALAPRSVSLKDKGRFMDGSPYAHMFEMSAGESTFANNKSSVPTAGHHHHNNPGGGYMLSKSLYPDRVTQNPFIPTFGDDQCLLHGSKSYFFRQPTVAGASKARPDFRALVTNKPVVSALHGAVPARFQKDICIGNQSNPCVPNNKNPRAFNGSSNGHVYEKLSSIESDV
Description: as §1, §2, §3, §4

[3] = HEK293 cells, % potentiation of current elicited with EC20 L-glutamate and 30 μM glycine, read-out: Avg Emax 2A (%)
[4] = % potentiation of current elicited with EC20 L-glutamate and 30 μM glycine
[5] = HEK293 cells, co-application with EC20 L-glutamate and 30 μM glycine, 8-point concentration-response, read-out: Avg EC50 2A
[6] = co-application with EC20 L-glutamate and 30 μM glycine, 8-point concentration-response, read-out: Avg EC50 2B

Chain of GlunN1/GluN2A glutamate receptors (Q12879 23-1464, other chains not shown): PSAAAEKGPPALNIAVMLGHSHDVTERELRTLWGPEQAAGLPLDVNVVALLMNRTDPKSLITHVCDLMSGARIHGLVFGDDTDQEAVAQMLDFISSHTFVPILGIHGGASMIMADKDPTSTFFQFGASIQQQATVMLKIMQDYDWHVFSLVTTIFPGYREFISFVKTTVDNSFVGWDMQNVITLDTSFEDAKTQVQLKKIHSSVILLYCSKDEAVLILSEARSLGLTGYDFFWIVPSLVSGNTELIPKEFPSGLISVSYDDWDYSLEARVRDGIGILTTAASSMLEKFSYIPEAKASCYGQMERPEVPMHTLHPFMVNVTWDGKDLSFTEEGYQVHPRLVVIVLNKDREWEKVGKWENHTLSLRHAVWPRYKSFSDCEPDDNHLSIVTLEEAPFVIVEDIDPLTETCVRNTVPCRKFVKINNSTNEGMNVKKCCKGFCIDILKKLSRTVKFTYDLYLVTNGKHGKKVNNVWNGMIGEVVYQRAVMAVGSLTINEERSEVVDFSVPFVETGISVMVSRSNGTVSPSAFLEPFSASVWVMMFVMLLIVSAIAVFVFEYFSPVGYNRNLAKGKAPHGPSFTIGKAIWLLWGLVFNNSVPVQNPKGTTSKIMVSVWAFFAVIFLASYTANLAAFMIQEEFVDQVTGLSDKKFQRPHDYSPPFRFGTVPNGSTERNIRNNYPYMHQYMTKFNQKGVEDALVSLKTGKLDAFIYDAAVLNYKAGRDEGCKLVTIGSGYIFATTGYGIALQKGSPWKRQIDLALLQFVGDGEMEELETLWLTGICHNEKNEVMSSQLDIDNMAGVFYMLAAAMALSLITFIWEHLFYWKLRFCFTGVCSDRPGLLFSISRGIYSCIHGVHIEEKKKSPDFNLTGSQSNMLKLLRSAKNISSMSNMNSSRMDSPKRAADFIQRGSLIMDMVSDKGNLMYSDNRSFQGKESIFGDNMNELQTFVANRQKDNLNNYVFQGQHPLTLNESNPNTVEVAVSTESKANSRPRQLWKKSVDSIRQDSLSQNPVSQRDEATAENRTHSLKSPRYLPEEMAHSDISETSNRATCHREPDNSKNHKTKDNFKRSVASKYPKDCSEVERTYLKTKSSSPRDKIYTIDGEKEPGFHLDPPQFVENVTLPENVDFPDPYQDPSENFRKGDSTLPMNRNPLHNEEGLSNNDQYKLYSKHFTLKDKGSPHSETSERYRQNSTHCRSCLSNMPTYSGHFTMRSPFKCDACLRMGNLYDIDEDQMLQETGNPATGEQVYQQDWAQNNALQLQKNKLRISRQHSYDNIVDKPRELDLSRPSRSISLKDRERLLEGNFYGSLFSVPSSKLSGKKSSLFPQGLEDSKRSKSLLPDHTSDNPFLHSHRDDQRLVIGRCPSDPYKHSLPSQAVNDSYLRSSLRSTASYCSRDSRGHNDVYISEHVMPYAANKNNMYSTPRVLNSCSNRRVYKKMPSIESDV

Row | Structure (SMILES) | EC50 [1] | Emax [1, 3] | EC50 [2] | Emax [2, 4] | EC50 [1, 5] | EC50 [2, 6] | Emax ([1]; HEK293, read-out: Avg Emax 2A (%)) | Emax [2]
1 | CC[C@]1(O)CC[C@@]2(C)[C@@H](CC[C@@H]3[C@@H]2CC[C@]2(C)[C@@H]([C@H](C)CCC(O)c4ccccc4)CC[C@@H]32)C1 (stereo partly drawn) [Compound 6544] | 559 nM | 253% | 498 nM | 415% | – | – | – | –
2 | C[C@H](CC[C@@H](C)O)[C@H]1CC[C@H]2[C@@H]3CC=C4C[C@](O)(C(F)(F)F)CC[C@]4(C)[C@H]3CC[C@]12C [Compound 3266] | – | 82.6% | – | 135% | 147 nM | 377 nM | – | –
3 | CC(C)C(O)CC[C@@H](C)[C@H]1CC[C@H]2[C@@H]3CC[C@H]4C[C@@](C)(O)CC[C@@H]4[C@H]3CC[C@]12C (stereo partly drawn) [Compound 175] | 574 nM | 367% | 288 nM | 279% | – | – | – | –
4 | CC[C@]1(O)CC[C@H]2C(=CC[C@@H]3[C@@H]2CC[C@]2(C)[C@@H]([C@H](C)CCC4(O)CCC(C)(C)CC4)CC[C@@H]32)C1 [Compound 8946] | 1600 nM | 263% | 1350 nM | 231% | – | – | – | –
5 | C[C@H](CCC(O)C1CCOCC1)[C@H]1CC[C@H]2[C@@H]3CC[C@H]4C[C@](O)(C(F)(F)F)CC[C@]4(C)[C@H]3CC[C@]12C (stereo partly drawn) [Compound 9] | 317 nM | 181% | 234 nM | 271% | – | – | – | –
6 | C[C@H](CCC(O)c1cccnc1)[C@H]1CC[C@H]2[C@@H]3CC=C4C[C@@](C)(O)CC[C@]4(C)[C@H]3CC[C@]12C (stereo partly drawn) [Compound 255] | – | 159% | – | 132% | 646 nM | 153 nM | – | –
7 | CC[C@]1(O)CC[C@H]2C(=CC[C@@H]3[C@@H]2CC[C@]2(C)[C@@H]([C@H](C)CCCC4(O)CCC(C)(C)CC4)CC[C@@H]32)C1 [Compound 10317] | – | 56.7% | – | 59.9% | – | – | – | –
8 | CO[C@H]1CC[C@](O)(CC[C@@H](C)[C@H]2CC[C@H]3[C@@H]4CC[C@H]5C[C@](O)(C(F)(F)F)CC[C@]5(C)[C@H]4CC[C@]23C)CC1 [Compound 4585] | 215 nM | 72.2% | 166 nM | 123% | – | – | – | –
9 | CC[C@]1(O)CC[C@H]2C(=CC[C@@H]3[C@@H]2CC[C@]2(C)[C@@H]([C@H](C)CC[C@H](O)C(C)C)CC[C@@H]32)C1 [Compound 8462] | 170 nM | – | 96.2 nM | – | – | – | – | –
10 | COC[C@H]1CC[C@](O)(CC[C@@H](C)[C@H]2CC[C@H]3[C@@H]4CC[C@H]5C[C@](O)(C(F)(F)F)CC[C@]5(C)[C@H]4CC[C@]23C)CC1 [Compound 4657] | 422 nM | 74% | 130 nM | 62.9% | – | – | – | –
11 | COC[C@H]1CC[C@@](O)(CC[C@@H](C)[C@H]2CC[C@H]3[C@@H]4CC[C@H]5C[C@](O)(C(F)(F)F)CC[C@]5(C)[C@H]4CC[C@]23C)CC1 [Compound 4656] | 1600 nM | 134% | 2160 nM | 122% | – | – | – | –
12 | CC[C@]1(O)CC[C@H]2C(=CC[C@@H]3[C@@H]2CC[C@]2(C)[C@@H]([C@H](C)CCC4(O)CC4)CC[C@@H]32)C1 [Compound 8245] | 525 nM | 73% | 268 nM | 120% | – | – | – | –
13 | C[C@H](CCC1(O)CCC(C)(C)CC1)[C@H]1CC[C@H]2[C@@H]3CC[C@H]4C[C@](O)(C(F)(F)F)CC[C@]4(C)[C@H]3CC[C@]12C [Compound E-2817] | – | 29.9% | – | 20.4% | – | – | – | –
14 | CC[C@]1(O)CC[C@H]2C(=CC[C@@H]3[C@@H]2CC[C@]2(C)[C@@H]([C@H](C)CCCC4(O)CC4)CC[C@@H]32)C1 [Compound 10790] | – | 160% | – | 246% | 204 nM | 271 nM | – | –
15 | CCC1(C)CCC(O)(CC[C@@H](C)[C@H]2CC[C@H]3[C@@H]4CC[C@H]5C[C@](O)(C(F)(F)F)CC[C@]5(C)[C@H]4CC[C@]23C)CC1 (stereo partly drawn) [Compound 4906] | – | 8.8% | – | 14.8% | > 10000 nM | > 10000 nM | – | –
16 | C[C@H](CCC1(O)CCC2(CC1)COC2)[C@H]1CC[C@H]2[C@@H]3CC[C@H]4C[C@](O)(C(F)(F)F)CC[C@]4(C)[C@H]3CC[C@]12C [Compound 5009] | > 10000 nM | 27.5% | > 10000 nM | 14.5% | – | – | – | –
17 | CC[C@]1(O)CC[C@@]2(C)C(=CC[C@H]3[C@@H]4CC[C@H]([C@H](C)CC[C@H](O)c5cccnc5)[C@@]4(C)CC[C@@H]32)C1 [Compound 6458] | > 10000 nM | 30.9% | 929 nM | 79.4% | – | – | – | –
18 | C[C@H](CCC(O)C(F)(F)F)[C@H]1CC[C@H]2[C@@H]3CC[C@H]4C[C@](O)(C(F)(F)F)CC[C@]4(C)[C@H]3CC[C@]12C (stereo partly drawn) [Compound 2918] | 298 nM | 532% | 339 nM | 506% | – | – | – | –
19 | C[C@H](CCC[C@H](O)C(C)(C)C)[C@H]1CC[C@H]2[C@@H]3CC[C@H]4C[C@](O)(C(F)(F)F)CC[C@]4(C)[C@H]3CC[C@]12C [Compound 12156] | – | 43.2% | – | 111% | – | – | – | –
20 | C[C@H](CC[C@@H](C)O)[C@H]1CC[C@H]2[C@@H]3CC[C@H]4C[C@](O)(C(F)(F)F)CC[C@]4(C)[C@H]3CC[C@]12C [Compound 2285] | 764 nM | 205% | 494 nM | 220% | – | – | – | –
21 | CO[C@H]1CC[C@@](O)(CC[C@@H](C)[C@H]2CC[C@H]3[C@@H]4CC[C@H]5C[C@](O)(C(F)(F)F)CC[C@]5(C)[C@H]4CC[C@]23C)CC1 [Compound 4555] | > 10000 nM | 22.8% | > 10000 nM | 31.9% | – | – | – | –
22 | CC[C@]1(O)CC[C@@]2(C)C(=CC[C@H]3[C@@H]4CC[C@H]([C@H](C)CC[C@H](O)c5ccccc5F)[C@@]4(C)CC[C@@H]32)C1 (single isomer, unassigned) [Compound 7281] | 248 nM | – | 303 nM | – | – | – | – | –
23 | C[C@H](CCC(C)(C)O)[C@H]1CC[C@H]2[C@@H]3CC=C4C[C@](O)(C(F)(F)F)CC[C@]4(C)[C@H]3CC[C@]12C [Compound 1839] | – | 493% | – | 568% | 295 nM | – | – | –
24 | CC(C)C(O)CC[C@@H](C)[C@H]1CC[C@H]2[C@@H]3CC[C@H]4C[C@](O)(C(F)(F)F)CC[C@]4(C)[C@H]3CC[C@]12C (stereo partly drawn) [Compound 2] | – | 709% | 147 nM | 605% | – | – | – | –
25 | CC[C@]1(O)CC[C@H]2C(=CC[C@@H]3[C@@H]2CC[C@]2(C)[C@@H]([C@H](C)CCC[C@H](O)C(C)C)CC[C@@H]32)C1 [Compound 10115] | – | 192% | – | 226% | 556 nM | 458 nM | – | –
26 | C[C@H](CC[C@]1(O)CCOC1)[C@H]1CC[C@H]2[C@@H]3CC[C@H]4C[C@](O)(C(F)(F)F)CC[C@]4(C)[C@H]3CC[C@]12C [Compound 2707] | – | 113% | – | 259% | 119 nM | 103 nM | – | –
27 | CC[C@]1(O)CC[C@H]2C(=CC[C@@H]3[C@@H]2CC[C@]2(C)[C@@H]([C@H](C)CCC[C@@H](C)O)CC[C@@H]32)C1 [Compound 9792] | – | 64.5% | – | 58.2% | – | – | – | –
28 | CC[C@]1(O)CC[C@H]2C(=CC[C@@H]3[C@@H]2CC[C@]2(C)[C@@H]([C@H](C)CCC(O)C(C)(C)C)CC[C@@H]32)C1 (stereo partly drawn) [Compound 8361] | 87 nM | – | 136 nM | – | – | – | 252% | 309%
29 | CC[C@]1(O)CC[C@@]2(C)C(=CC[C@H]3[C@@H]4CC[C@H]([C@H](C)CC[C@H](O)c5ccc(C#N)cc5)[C@@]4(C)CC[C@@H]32)C1 (single isomer, unassigned) [Compound 6681] | 365 nM | 172% | 360 nM | 165% | – | – | – | –
